Data taken from patent publication US20080009418A1, “Selective Inhibitors” (Alchemia LTD., priority 2004, published 2008).

Columns and labels:
Human δ-opioid (DOP) = target: T1, Human δ-opioid (DOP) (Homo sapiens, UniProt P41143); assay: Radioligand binding, human δ-opioid (DOP) membranes, FlashPlate, [3H]-Bremazocine; details: compound at 10 μM, [3H]-Bremazocine
T1 construct: purchased Perkin Elmer Biosignal
How it was run: (§1)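 Cloned human receptor membranes were coated onto FlashPlate wells and incubated with radioligand and compound (added from a 0.5 mM DMSO daughter plate) for 1 hour at room temperature in the dark. Scintillation counting gave percent inhibition, with DMSO defining total and reference ligand defining non-specific binding.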

Human κ-Opioid (KOP) = target: T2, Human κ-Opioid (KOP) (Homo sapiens, UniProt P41145); assay: Radioligand binding, human κ-opioid (KOP) membranes, filtration, [3H]-Diprenorphine; details: compound at 10 μM, [3H]-Diprenorphine
T2 construct: purchased Perkin Elmer Biosignal
How it was run: (§2)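 Filtration binding on cloned human receptor membranes (1 Unit/well), [125I]-Substance P for NK1 and [3H]-Diprenorphine for KOP, 1 h at room temperature. Filters PEI-presoaked, washed with cold 50 mM Tris-HCl pH 7.4, counted by scintillation; percent inhibition calculated, reference ligand defining non-specific binding.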

Human Melanocortin (MC3) = target: T3, Human Melanocortin (MC3) (Homo sapiens, UniProt P41968); assay: Radioligand binding, human melanocortin MC3 membranes, FlashPlate, [125I]-NDP-αMSH; details: compound at 10 μM, [125I]-NDP-αMSH
T3 construct: purchased Perkin Elmer Biosignal
How it was run: as §1

Human Melanocortin (MC4) = target: T4, Human Melanocortin (MC4) (Homo sapiens, UniProt P32245); assay: Radioligand binding, human melanocortin MC4 membranes, FlashPlate, [125I]-NDP-αMSH; details: compound at 10 μM, [125I]-NDP-αMSH
T4 construct: purchased Perkin Elmer Biosignal
How it was run: as §1

Human melanocortin (MC5) = target: T5, Human melanocortin (MC5) (Homo sapiens, UniProt P33032); assay: Radioligand binding, human melanocortin MC5 membranes, FlashPlate, [125I]-NDP-αMSH; details: compound at 10 μM, [125I]-NDP-αMSH
T5 construct: purchased Perkin Elmer Biosignal
How it was run: as §1

[1] = target: T6, Human melanin-concentrating hormone (MCH1) (Homo sapiens, UniProt Q99705); assay: Radioligand binding, human melanin-concentrating hormone MCH1 membranes, FlashPlate, [125I]-S36057; details: compound at 10 μM
T6 construct: purchased Perkin Elmer Biosignal
How it was run: as §1

Human μ-opioid (MOP) = target: T7, Human μ-opioid (MOP) (Homo sapiens, UniProt P35372); assay: Radioligand binding, human μ-opioid (MOP) membranes, FlashPlate, [3H]-Naloxone; details: compound at 10 μM, [3H]-Naloxone
T7 construct: purchased Perkin Elmer Biosignal
How it was run: as §1

Human neurokinin (NK1) = target: T8, Human neurokinin (NK1) (Homo sapiens, UniProt P25103); assay: Radioligand binding, human neurokinin NK1 membranes, filtration, [125I]-Substance P; details: compound at 10 μM, [125I]-Substance P
T8 construct: purchased Perkin Elmer Biosignal
How it was run: as §2

[2] = target: T9, Human neuropeptide Y (NPY-Y1) (Homo sapiens, UniProt P25929); assay: Radioligand binding, human neuropeptide Y NPY-Y1 membranes, FlashPlate, [125I]-PYY; details: compound at 10 μM, [125I]-PYY
T9 construct: purchased Perkin Elmer Biosignal
T9 sequence (P25929 1-384): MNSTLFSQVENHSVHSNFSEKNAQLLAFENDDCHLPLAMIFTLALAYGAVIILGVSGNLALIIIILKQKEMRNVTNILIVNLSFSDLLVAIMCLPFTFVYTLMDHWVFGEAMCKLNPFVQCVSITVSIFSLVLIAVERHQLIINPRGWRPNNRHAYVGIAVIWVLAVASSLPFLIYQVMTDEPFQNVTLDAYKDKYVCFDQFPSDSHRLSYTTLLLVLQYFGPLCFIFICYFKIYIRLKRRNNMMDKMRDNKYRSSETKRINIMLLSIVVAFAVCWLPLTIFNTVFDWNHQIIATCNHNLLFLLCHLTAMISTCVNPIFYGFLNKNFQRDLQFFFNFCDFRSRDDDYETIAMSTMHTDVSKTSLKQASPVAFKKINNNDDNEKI
How it was run: as §1

Human opioid (ORL1) = target: T10, Human opioid (ORL1) (Homo sapiens, UniProt P41146); assay: Radioligand binding, human opioid ORL1 membranes, FlashPlate, [125I]-Nociceptin; details: compound at 10 μM, [125I]-Nociceptin
T10 construct: purchased Perkin Elmer Biosignal
How it was run: as §1

Mouse urotensin (mUR2) = target: T11, Mouse urotensin (mUR2) (Mus musculus, UniProt Q8VIH9); assay: Radioligand binding, mouse urotensin mUR2 membranes, FlashPlate, [125I]-Urotensin II; details: compound at 10 μM, [125I]-Urotensin II
T11 construct: purchased Perkin Elmer Biosignal
T11 sequence (Q8VIH9 1-385): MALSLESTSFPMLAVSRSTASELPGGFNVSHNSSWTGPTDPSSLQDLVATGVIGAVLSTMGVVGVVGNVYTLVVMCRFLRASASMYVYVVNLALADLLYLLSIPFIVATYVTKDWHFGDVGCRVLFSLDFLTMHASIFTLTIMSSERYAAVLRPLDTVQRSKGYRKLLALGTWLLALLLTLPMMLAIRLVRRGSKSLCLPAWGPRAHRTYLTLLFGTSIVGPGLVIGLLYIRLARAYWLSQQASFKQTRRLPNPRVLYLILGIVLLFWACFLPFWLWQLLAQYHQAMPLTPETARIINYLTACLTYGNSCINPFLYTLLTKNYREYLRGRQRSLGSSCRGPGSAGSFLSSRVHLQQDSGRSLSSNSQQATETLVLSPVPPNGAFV
How it was run: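 Cloned mouse urotensin (mUR2) receptor membranes from Perkin Elmer Biosignal were immobilized in FlashPlate microplates using a proprietary coating. Each well got 19.5 μl buffer, then 0.5 μl of DMSO, reference ligand, or compound. Adding 5 μl of [125I]-Urotensin II, diluted to 5× final concentration in binding buffer, started binding. Plates were sealed with TopSeal-A and incubated 1 hour at room temperature in the dark. Wells were counted for 30 seconds each on a TopCount after a 60-second delay, and percentage inhibition was calculated.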

[3] = [125I]-S36057, human MCH1 membranes

T1 sequence (P41143 whole entry): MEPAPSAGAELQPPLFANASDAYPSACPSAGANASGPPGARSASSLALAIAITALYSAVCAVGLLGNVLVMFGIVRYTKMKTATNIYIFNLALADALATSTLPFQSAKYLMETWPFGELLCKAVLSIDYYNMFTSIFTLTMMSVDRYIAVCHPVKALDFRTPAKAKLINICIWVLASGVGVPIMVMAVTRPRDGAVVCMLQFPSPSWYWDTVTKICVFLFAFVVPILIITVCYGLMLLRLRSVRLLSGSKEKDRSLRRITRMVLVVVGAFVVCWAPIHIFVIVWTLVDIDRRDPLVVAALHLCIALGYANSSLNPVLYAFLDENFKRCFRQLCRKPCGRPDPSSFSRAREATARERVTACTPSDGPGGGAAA
T4 sequence (P32245 whole entry): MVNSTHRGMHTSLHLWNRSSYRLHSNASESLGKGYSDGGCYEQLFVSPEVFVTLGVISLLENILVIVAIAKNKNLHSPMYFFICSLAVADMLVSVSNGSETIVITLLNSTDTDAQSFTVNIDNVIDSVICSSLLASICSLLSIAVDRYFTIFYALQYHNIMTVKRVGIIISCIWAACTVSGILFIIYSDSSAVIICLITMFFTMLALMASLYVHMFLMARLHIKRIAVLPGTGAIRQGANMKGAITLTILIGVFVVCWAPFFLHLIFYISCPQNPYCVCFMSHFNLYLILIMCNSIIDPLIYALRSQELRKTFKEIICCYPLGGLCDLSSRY
T5 sequence (P33032 whole entry): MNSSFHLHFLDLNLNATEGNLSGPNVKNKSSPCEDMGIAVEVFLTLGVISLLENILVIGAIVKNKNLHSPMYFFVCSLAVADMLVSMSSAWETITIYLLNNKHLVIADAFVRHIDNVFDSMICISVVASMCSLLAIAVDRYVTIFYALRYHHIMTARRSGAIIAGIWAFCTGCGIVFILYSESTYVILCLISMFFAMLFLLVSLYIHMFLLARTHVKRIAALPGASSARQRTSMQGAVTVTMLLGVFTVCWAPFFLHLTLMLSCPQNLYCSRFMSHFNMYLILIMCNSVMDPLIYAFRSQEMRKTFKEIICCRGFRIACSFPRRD
T7 sequence (P35372 whole entry): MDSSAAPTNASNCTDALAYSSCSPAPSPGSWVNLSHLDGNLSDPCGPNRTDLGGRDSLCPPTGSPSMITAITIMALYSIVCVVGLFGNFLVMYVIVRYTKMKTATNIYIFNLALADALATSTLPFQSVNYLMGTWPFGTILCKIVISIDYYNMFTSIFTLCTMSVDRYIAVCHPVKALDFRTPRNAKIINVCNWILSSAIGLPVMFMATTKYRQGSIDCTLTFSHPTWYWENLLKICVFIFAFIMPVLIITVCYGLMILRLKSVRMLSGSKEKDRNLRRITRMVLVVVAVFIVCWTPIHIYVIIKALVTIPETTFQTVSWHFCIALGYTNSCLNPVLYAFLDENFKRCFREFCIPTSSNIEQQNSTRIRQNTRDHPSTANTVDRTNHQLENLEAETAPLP
T10 sequence (P41146 whole entry): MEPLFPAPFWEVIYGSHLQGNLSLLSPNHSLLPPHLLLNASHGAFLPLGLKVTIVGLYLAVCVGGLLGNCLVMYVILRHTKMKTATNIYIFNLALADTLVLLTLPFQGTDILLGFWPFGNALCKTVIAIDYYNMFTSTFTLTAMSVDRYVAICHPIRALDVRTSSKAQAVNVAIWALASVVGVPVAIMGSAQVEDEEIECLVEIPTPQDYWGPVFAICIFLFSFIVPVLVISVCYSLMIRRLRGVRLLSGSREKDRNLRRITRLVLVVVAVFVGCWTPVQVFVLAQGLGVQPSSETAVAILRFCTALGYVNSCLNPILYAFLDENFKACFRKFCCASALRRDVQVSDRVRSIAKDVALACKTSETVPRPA
T8 sequence (P25103 whole entry): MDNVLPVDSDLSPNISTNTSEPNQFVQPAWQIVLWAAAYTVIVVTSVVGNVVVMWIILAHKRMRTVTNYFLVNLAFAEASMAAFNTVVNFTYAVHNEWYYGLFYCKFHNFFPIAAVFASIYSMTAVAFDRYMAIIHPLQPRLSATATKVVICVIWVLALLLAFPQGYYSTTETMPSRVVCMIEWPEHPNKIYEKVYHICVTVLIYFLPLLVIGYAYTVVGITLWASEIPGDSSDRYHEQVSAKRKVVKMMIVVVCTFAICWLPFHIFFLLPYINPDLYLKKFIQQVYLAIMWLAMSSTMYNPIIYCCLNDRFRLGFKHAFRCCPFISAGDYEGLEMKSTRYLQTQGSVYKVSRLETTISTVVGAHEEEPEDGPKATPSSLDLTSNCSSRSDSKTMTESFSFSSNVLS
T2 sequence (P41145 whole entry): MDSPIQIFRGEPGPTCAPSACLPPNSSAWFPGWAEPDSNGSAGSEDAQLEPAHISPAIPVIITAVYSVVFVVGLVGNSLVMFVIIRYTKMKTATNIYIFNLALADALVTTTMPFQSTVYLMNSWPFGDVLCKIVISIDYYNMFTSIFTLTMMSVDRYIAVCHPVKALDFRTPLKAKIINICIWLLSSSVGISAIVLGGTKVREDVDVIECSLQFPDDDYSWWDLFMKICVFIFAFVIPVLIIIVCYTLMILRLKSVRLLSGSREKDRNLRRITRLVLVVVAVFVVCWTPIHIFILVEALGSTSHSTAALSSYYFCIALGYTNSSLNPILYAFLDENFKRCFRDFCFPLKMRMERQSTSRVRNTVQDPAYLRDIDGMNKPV
T6 sequence (Q99705 whole entry): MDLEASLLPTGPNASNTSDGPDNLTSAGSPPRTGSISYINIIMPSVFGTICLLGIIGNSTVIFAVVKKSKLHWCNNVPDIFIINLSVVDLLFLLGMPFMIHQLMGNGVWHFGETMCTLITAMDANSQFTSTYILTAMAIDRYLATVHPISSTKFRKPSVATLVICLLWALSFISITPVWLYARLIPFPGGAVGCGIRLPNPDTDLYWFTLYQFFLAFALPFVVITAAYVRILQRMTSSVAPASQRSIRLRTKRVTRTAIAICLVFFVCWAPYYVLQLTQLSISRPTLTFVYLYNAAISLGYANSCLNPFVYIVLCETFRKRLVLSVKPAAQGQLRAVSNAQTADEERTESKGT
T3 sequence (P41968 whole entry): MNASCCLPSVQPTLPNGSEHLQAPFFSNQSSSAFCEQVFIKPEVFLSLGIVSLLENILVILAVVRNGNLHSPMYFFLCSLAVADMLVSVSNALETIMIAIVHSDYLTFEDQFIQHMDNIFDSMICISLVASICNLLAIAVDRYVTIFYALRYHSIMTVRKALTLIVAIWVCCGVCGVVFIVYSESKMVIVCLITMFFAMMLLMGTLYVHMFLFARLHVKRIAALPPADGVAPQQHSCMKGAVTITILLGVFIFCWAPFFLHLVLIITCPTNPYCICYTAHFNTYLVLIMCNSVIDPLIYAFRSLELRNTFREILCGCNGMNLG

Row | Compound | A1: inhibition of radioligand binding (Human δ-opioid (DOP); human DOP membranes) | A2: inhibition of radioligand binding (Human κ-Opioid (KOP); human KOP membranes) | A3: inhibition of radioligand binding (Human Melanocortin (MC3); human MC3 membranes) | A5: inhibition of radioligand binding (Human melanocortin (MC5); human MC5 membranes) | A6: inhibition of radioligand binding [1, 3] | A8: inhibition of radioligand binding (Human neurokinin (NK1); human NK1 membranes) | A9: inhibition of radioligand binding ([2]; human NPY-Y1 membranes) | A11: inhibition of radioligand binding (Mouse urotensin (mUR2); mouse mUR2 membranes) | A1: inhibition of radioligand binding (Human δ-opioid (DOP); FlashPlate) | A2: inhibition of radioligand binding (Human κ-Opioid (KOP); filtration) | A3: inhibition of radioligand binding (Human Melanocortin (MC3); FlashPlate) | A4: inhibition of radioligand binding (Human Melanocortin (MC4); FlashPlate) | A5: inhibition of radioligand binding (Human melanocortin (MC5); FlashPlate) | A6: inhibition of radioligand binding ([1]; [125I]-S36057, FlashPlate) | A7: inhibition of radioligand binding (Human μ-opioid (MOP); FlashPlate) | A8: inhibition of radioligand binding (Human neurokinin (NK1); filtration) | A9: inhibition of radioligand binding ([2]; FlashPlate) | A10: inhibition of radioligand binding (Human opioid (ORL1); FlashPlate) | A11: inhibition of radioligand binding (Mouse urotensin (mUR2); FlashPlate) | further results
1 | NCCCC(=O)NC1C(OCc2ccc3ccccc3c2)OC(COCc2ccccc2)C(O)C1OCc1ccccc1 (single isomer, unassigned) [compound 468] | − (“−” indicates less than 50% inhibition at 10 μM) | − (“−” indicates less than 50% inhibition at 10 μM) | − (“−” indicates less than 50% inhibition at 10 μM) | − (“−” indicates less than 50% inhibition at 10 μM) | − (“−” indicates less than 50% inhibition at 10 μM) | + (“+” indicates greater than 50% inhibition at 10 μM) | − (“−” indicates less than 50% inhibition at 10 μM) | − (“−” indicates less than 50% inhibition at 10 μM) | – | – | – | – | – | – | – | – | – | – | – | A4: inhibition of radioligand binding (Human Melanocortin (MC4); human MC4 membranes, 10 µM): − (“−” indicates less than 50% inhibition at 10 μM); A7: inhibition of radioligand binding (Human μ-opioid (MOP); human MOP membranes, 10 µM): + (“+” indicates greater than 50% inhibition at 10 μM); A10: inhibition of radioligand binding (Human opioid (ORL1); human ORL1 membranes, 10 µM): + (“+” indicates greater than 50% inhibition at 10 μM)
2 | COCC1OC(OCc2ccc3ccccc3c2)C(NC(=O)CCNC(=N)N)C(OCc2ccccc2)C1O (stereo not shown) [compound 232] | – | – | – | – | – | – | – | – | − (“−” indicates less than 50% inhibition at 10 μM) | − (“−” indicates less than 50% inhibition at 10 μM) | − (“−” indicates less than 50% inhibition at 10 μM) | − (“−” indicates less than 50% inhibition at 10 μM) | − (“−” indicates less than 50% inhibition at 10 μM) | − (“−” indicates less than 50% inhibition at 10 μM) | − (“−” indicates less than 50% inhibition at 10 μM) | + (“+” indicates greater than 50% inhibition at 10 μM) | − (“−” indicates less than 50% inhibition at 10 μM) | − (“−” indicates less than 50% inhibition at 10 μM) | − (“−” indicates less than 50% inhibition at 10 μM) | –
3 | COCC1OC(OCc2ccc(Cl)cc2)C(NC(=O)CNC(=N)N)C(OCc2ccc3ccccc3c2)C1O (stereo not shown) [compound 209] | – | – | – | – | – | – | – | – | − (“−” indicates less than 50% inhibition at 10 μM) | − (“−” indicates less than 50% inhibition at 10 μM) | + (“+” indicates greater than 50% inhibition at 10 μM) | + (“+” indicates greater than 50% inhibition at 10 μM) | + (“+” indicates greater than 50% inhibition at 10 μM) | − (“−” indicates less than 50% inhibition at 10 μM) | − (“−” indicates less than 50% inhibition at 10 μM) | + (“+” indicates greater than 50% inhibition at 10 μM) | − (“−” indicates less than 50% inhibition at 10 μM) | − (“−” indicates less than 50% inhibition at 10 μM) | − (“−” indicates less than 50% inhibition at 10 μM) | –
4 | N=C(N)NCC(=O)NC1C(OCc2ccc(Cl)cc2)OC(COCc2ccc(Cl)cc2)C(O)C1OCc1ccc(Cl)cc1 (stereo not shown) [compound 419] | − (“−” indicates less than 50% inhibition at 10 μM) | − (“−” indicates less than 50% inhibition at 10 μM) | + (“+” indicates greater than 50% inhibition at 10 μM) | + (“+” indicates greater than 50% inhibition at 10 μM) | + (“+” indicates greater than 50% inhibition at 10 μM) | + (“+” indicates greater than 50% inhibition at 10 μM) | − (“−” indicates less than 50% inhibition at 10 μM) | − (“−” indicates less than 50% inhibition at 10 μM) | – | – | – | – | – | – | – | – | – | – | – | A4: inhibition of radioligand binding (Human Melanocortin (MC4); human MC4 membranes): + (“+” indicates greater than 50% inhibition at 10 μM); A7: inhibition of radioligand binding (Human μ-opioid (MOP); human MOP membranes): − (“−” indicates less than 50% inhibition at 10 μM); A10: inhibition of radioligand binding (Human opioid (ORL1); human ORL1 membranes): + (“+” indicates greater than 50% inhibition at 10 μM)
5 | NCCC(=O)NC1COC(COCc2ccc(-c3ccccc3)cc2)C(O)C1OCc1ccc(Cl)cc1 (stereo not shown) [compound 544] | – | – | – | – | – | – | – | – | – | – | – | – | – | – | – | – | – | – | – | A1: inhibition of radioligand binding, human δ-opioid (DOP) (Human δ-opioid (DOP)): − (“−” indicates less than 50% inhibition at 10 μM); A2: inhibition of radioligand binding, human κ-opioid (KOP) (Human κ-Opioid (KOP)): + (“+” indicates greater than 50% inhibition at 10 μM); A3: inhibition of radioligand binding, human melanocortin (MC3) (Human Melanocortin (MC3)): + (“+” indicates greater than 50% inhibition at 10 μM); A4: inhibition of radioligand binding, human melanocortin (MC4) (Human Melanocortin (MC4)): − (“−” indicates less than 50% inhibition at 10 μM); A5: inhibition of radioligand binding, human melanocortin (MC5) (Human melanocortin (MC5)): − (“−” indicates less than 50% inhibition at 10 μM); A6: inhibition of radioligand binding, human melanin-concentrating hormone (MCH1) ([1]; [125I]-S36057): − (“−” indicates less than 50% inhibition at 10 μM); A7: inhibition of radioligand binding, human μ-opioid (MOP) (Human μ-opioid (MOP)): − (“−” indicates less than 50% inhibition at 10 μM); A8: inhibition of radioligand binding, human neurokinin (NK1) (Human neurokinin (NK1)): + (“+” indicates greater than 50% inhibition at 10 μM); A9: inhibition of radioligand binding, human neuropeptide Y (NPY-Y1) [2]: − (“−” indicates less than 50% inhibition at 10 μM); A10: inhibition of radioligand binding, human opioid (ORL1) (Human opioid (ORL1)): − (“−” indicates less than 50% inhibition at 10 μM); A11: inhibition of radioligand binding, mouse urotensin (mUR2) (Mouse urotensin (mUR2)): − (“−” indicates less than 50% inhibition at 10 μM)
